Experimental findings from patent publication US4977267A, “Intermediates for pyridyloxy compounds having utility as anti-peptic ulcer agents” (Fujirebio Kabushiki Kaisha, priority 1987, dated 1990) are described below.

T1 sequence (P47747 whole entry): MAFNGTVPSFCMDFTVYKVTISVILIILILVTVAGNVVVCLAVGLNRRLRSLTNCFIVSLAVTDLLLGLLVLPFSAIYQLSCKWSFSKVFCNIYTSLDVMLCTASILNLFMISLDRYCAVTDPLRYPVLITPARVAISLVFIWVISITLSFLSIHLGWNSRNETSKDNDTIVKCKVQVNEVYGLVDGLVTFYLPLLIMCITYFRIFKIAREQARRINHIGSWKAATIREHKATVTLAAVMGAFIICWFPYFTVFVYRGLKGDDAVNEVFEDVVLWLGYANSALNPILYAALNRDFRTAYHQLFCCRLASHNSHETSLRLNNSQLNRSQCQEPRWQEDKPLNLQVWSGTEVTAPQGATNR

One assay concerns the target T1, histamine H2 receptor (Cavia porcellus, UniProt P47747).
T1 construct: the right atrium was dissected from the hearts; from tissue; host or cells: isolated right atrium of male Hartley-strain guinea pigs
Briefly: Test on histamine H2 receptor antagonizing activity (isolated right atrium). The conditions noted are these: guinea pig right atrium, heart rate; histamine dose-response; test compound 1×10^-6, 1×10^-7 M, 10 minutes; Van Rossum method; read-out: pA2 (converted). Also noted: species or system Hartley-strain guinea pigs. Here is the method:
Test on histamine H2 receptor antagonizing activity
Hartley-strain guinea pigs (male 300 to 350 g) were stunned with a blow to the head. The heart was removed, and the right atrium was dissected from the hearts in the Krebs' solution bubbled with a […] was suspended in an Organ bath filled with the Krebs' solution kept at 32° C. The gaseous mixture was passed through the Organ bath, and a diastolic tension was adjusted to 1 g. The contraction of the atrium was recorded by a force displacement transducer, and the heart rate was measured by interlocking a heart rate meter to the transducer.
Histamine (used in the form of dihydrochloride; the same hereinafter) was added to the Organ bath cumulatively in a concentration of 1×10^-8 M to 3×10^-5 M. Thus, the dose-response curve of histamine was obtained. The Organ bath was washed several times, and each of the test compounds (1×10^-6, 1×10^-7 M) was added to the Organ bath, and a dose-response curve of histamine in the presence of the test compound was obtained 10 minutes later.
The pA2 value of each of the test compound was determined from the first histamine dose-response curve and the histamine dose-response curve obtained in the presence of the test compounds by the method of J. M. Van Rossum (Arch. Int. Pharmacodyn. Ther., 143-299, 1963).
Consider `O=C(C[S+]([O-])Cc1ccco1)NC/C=C\COc1cc(CN2CCCC2)ccn1` (stereo not drawn) [Example 10, N-{4-[4-(pyrrolidinomethyl)pyridyl-2-oxy]-cis-2-butenyl}-2-(furfurylsulfinyl)acetamide], for which the Kb was 126 nM.

`O=C(CS(=O)(=O)Cc1ccoc1)NC/C=C\COc1cc(CN2CCCC2)ccn1` [Example 11, N-{4-[4-(pyrrolidinomethyl)pyridyl-2-oxy]-cis-2-butenyl}-2-(3-furylmethylsulfonyl)acetamide]: the Kb is 100 nM.

For the molecule `O=C(C[S+]([O-])Cc1ccco1)NC/C=C\COc1cc(CN2CCOCC2)ccn1` (stereo not drawn) [Example 12, N-{4-[4-(morpholinomethyl)pyridyl-2-oxy]-cis-2-butenyl}-2-(furfurylsulfinyl)acetamide], the Kb is 251 nM.

For a further assay, the system named is gastric mucosa (lesion by necrotizing agent 0.4N HCl+50% ethanol). The experiment in a line: Test on the Action of Gastric Mucosal Protection. The conditions noted are these: 10 mg/kg, p.o., 30 minutes before necrotizing agent (0.4N HCl+50% ethanol, 5 ml/kg); stomach isolated after one hour; rats fasted 24 hours. In kind it is in vivo, Male Donryu rats. As for the experimental part: Test on the Action of Gastric Mucosal Protection
Male Donryu rats (150 to 250 g) which had been caused to fast for 24 hours were used. In the test, a necrotizing agent (0.4N HCl+50% ethanol) was orally administered in a dose of 5 ml/kg 30 minutes after administering each of the test compounds (10 mg/kg, p.o.). One hour after administration of the necrotizing agent, the stomach was isolated and fixed by formalin. The area of a lesion was measured, and by comparison with a control group, the percent inhibition was determined.
As to `O=C(CSCc1ccco1)NC/C=C\COc1cc(CN2CCCCC2)ccn1` [Example 1, N-{4-[4-(piperidinomethyl)pyridyl-2oxy]-cis-2-butenyl)-2-(furfurylthio)acetamide], the “Inhibition (%) of lesion area” value is 66%.

Regarding `O=C(C[S+]([O-])Cc1ccco1)NC/C=C\COc1cc(CN2CCCCC2)ccn1` (stereo not drawn) [Example 2, N-{4-[4-(piperidinomethyl)pyridyl-2-oxy]-cis-2-butenyl}-2-(furfurylsulfinyl)acetamide], the “Inhibition (%) of lesion area” value turned out to be 32%.

Turning to `O=C(CS(=O)(=O)Cc1ccoc1)NC/C=C\COc1cc(CN2CCCCC2)ccn1` [Example 3, N-{4-[4-(piperidinomethyl)pyridyl-2-oxy]-cis-2-butenyl}-2-(3-furylmethylsulfonyl)acetamide], the “Inhibition (%) of lesion area” value is on record as 62%.

As to `O=C(C[S+]([O-])Cc1ccco1)NC/C=C\COc1cc(CN2CCOCC2)ccn1` (stereo not drawn) [Example 12, N-{4-[4-(morpholinomethyl)pyridyl-2-oxy]-cis-2-butenyl}-2-(furfurylsulfinyl)acetamide], the “Inhibition (%) of lesion area” value is listed as 38%.

Regarding `O=C(C[S+]([O-])Cc1ccco1)NCCCCOc1cc(CN2CCCCC2)ccn1` (centres unmarked) [Example 21, N-{4-[4-(piperidinomethyl)-pyridyl-2-oxy]-butyl}-2-(furfurylsulfinyl)acetamide], the “Inhibition (%) of lesion area” value stood at 32%.
